# WO2016071431A1, “A combination for cancer therapy” (Stichting Katholieke Universiteit, priority 2014, dated 2016)
# Entries after “also recorded” stand apart in the source; their conditions may differ. Like-named read-outs stand apart in the source and are kept apart here. In the oligonucleotide strings, read from the 5' end, every base follows the letter of its sugar. An asterisk marks phosphorothioate; unmarked linkages are phosphodiester. Other units and linkages are bracketed, terminal groups are in braces. A string of capitals states the bases alone. [s2] = phosphorodithioate linkage; d = 2'-deoxy (DNA)
# Tests used:
# [1] = tested on: Human monocyte-derived dendritic cells; assay: TLR-mediated maturation of human monocyte-derived dendritic cells (CD80); type: cell-based; details: six donors, four days with P-3Fax-Neu5Ac, then 24 hours polyI/C, R848 or LPS
# [2] = tested on: B16-F10 melanoma; assay: Combination with CpG in B16-F10 melanoma, tumor growth and survival; type: in vivo, mouse; details: CpG combination study; P-3Fax-Neu5Ac 0.3mg intratumoral three times per week and/or CpG 100μg peritumoral day 14 and 21
# [3] = tested on: sialic acid expression; assay: Sialic acid expression in tumor tissue and other organs after intratumoral injections (lectin flow cytometry); type: in vivo, mouse; details: after 3 intratumoral injections
# [4] = tested on: mammalian cells; details: Rillahan et al, 2012, cited from earlier work
# [5] = tested on: B16-F10 melanoma; assay: Intratumoral treatment of subcutaneous B16-F10 melanoma, tumor growth; type: in vivo, mouse; details: stand-alone, 0.3mg (10mg/kg) or 1mg (30mg/kg) intratumoral, three times per week for four weeks, C57BL/6 mice
# [6] = tested on: CD8+ cells; assay: Tumor infiltration of immune cells after intratumoral injections (flow cytometry); type: in vivo, mouse; details: after 3 intratumoral injections, 0.3mg
# [7] = tested on: melanoma cells; details: Büll et al, 2013; cited from earlier work
# [8] = tested on: Mouse bone marrow-derived dendritic cells; assay: TLR-mediated maturation of mouse bone marrow-derived dendritic cells (CD80); type: cell-based; details: three days with P-3Fax-Neu5Ac, then 24 hours LPS, CpG or polyI/C
# [9] = tested on: tumor cells; details: Büll et al, 2013; cited from earlier work
# [10] = tested on: B16-F10 melanoma; assay: Effect on B16-F10 tumor growth after depletion of effector immune cells; type: in vivo, mouse
# [11] = tested on: mouse melanoma cells; details: cited from earlier work
# [12] = tested on: 9464D neuroblastoma; assay: Intratumoral treatment of subcutaneous 9464D neuroblastoma, tumor growth; type: in vivo, mouse; details: 10mg/kg or 20m/kg intratumoral three times per week until day 50, C57BL/6 mice
molecule,measurement,setting,value
COC(=O)C1(OC(C)=O)OC(C(OC(C)=O)C(COC(C)=O)OC(C)=O)C(NC(C)=O)C(OC(C)=O)C1F (stereo not shown) [P-3Fax-Neu5Ac],activation / maturation of dendritic cells (CD80 expression),[1],enhances APC maturation with TLR ligands; also recorded: strongly enhances activation of dendritic cells
same,median survival time / survival time,[2],slightly prolonged the survival time
same,sialic acid expression in tumor tissue,"[3]; 0.3mg or 1mg, MALII, SNA-I or PNA lectin",block sialic acid expression in the tumor mass; also recorded: reduction of sialic acid expression in the isolated tumor tissue
same,sialic acid expression in other organs such as the spleen,[3]; fluorescent sialic acid binding lectins,not other organs such as the spleen
same,depletion of sialic acids from mammalian cells,[4],deplete sialic acids from mammalian cells
same,cellular cytotoxicity,[4]; mammalian cells,without causing cellular cytotoxicity
same,tumor growth,[5],hamper B 16-F 10 melanoma growth; also recorded: antagonizes tumor growth in a dose-dependent manner
same,tumor growth,[5]; listed as glycomimetic,delayed tumor growth modestly
same,infiltration of immune cells in the tumor,[6],"enhanced infiltration of immune cells, especially CD8+ cells in the tumor"
same,growth of melanoma cells treated with the inhibitor before injection into mice,[7],grow significantly slower
same,activation / maturation of dendritic cells (CD80 expression),[8],enhances APC maturation with TLR ligands; also recorded: strongly enhances activation of dendritic cells
same,adhesion and migration of tumor cells,[9],can impair adhesion and migration of tumor cells
same,tumor growth suppression mediated by CD8+ cells,"[10]; B16-F10 melanoma model, CD8+ depleted versus non-depleted mice",mediated by effector CD8+ immune cells
same,effect of sialic acid blockade on tumor growth upon CD4+ cell depletion,"[10]; CD4+ cell depletion, 0.3mg intratumoral three times per week",unaffected
same,effect of sialic acid blockade on tumor growth upon CD8+ cell depletion,"[10]; CD8+ cell depletion, 0.3mg intratumoral three times per week",CD8+ cell depletion abrogated the effect of sialic acid blockade on tumor growth
same,effect of sialic acid blockade on tumor growth upon K1.1+ cell depletion,"[10]; K1.1+ cell depletion, 0.3mg intratumoral three times per week",unaffected
same,expression of sialic acids in melanoma / cancer cells,"[11]; Büll et al, 2013, listed as glycomimetic",potently blocks sialic acid synthesis and expression in cancer cells
same,duration of the blocking effect,"[11]; Büll et al, 2013",almost four days
same,expression of sialic acids in melanoma / cancer cells,"[11]; Büll et al, 2013",blocks the expression of sialic acids in mouse melanoma cells with high efficiency
same,tumor growth,[12],hamper 9464D neuroblastoma growth
CpG: CpG oligodeoxynucleotide immune adjuvant; more preferred: phosphodithioate backbone and sequence 5'-TCCATGACGTTCCTGATGCT-3' (DNA dT[s2]dC[s2]dC[s2]dA[s2]dT[s2]dG[s2]dA[s2]dC[s2]dG[s2]dT[s2]dT[s2]dC[s2]dC[s2]dT[s2]dG[s2]dA[s2]dT[s2]dG[s2]dC[s2]dT),median survival time / survival time,[2],no effect on tumor growth and median survival time
same,tumor growth,[2],almost no effect on tumor growth
